Laboratory results reported in patent publication US20180009764A1, “METHOD FOR TREATING MACROPHAGE MIGRATION INHIBITORY FACTOR (MIF)-IMPLICATED DISEASES AND CONDITIONS WITH IODO PYRIMIDINE DERIVATIVES” (UNIVERSITY OF LOUISVILLE RESEARCH FOUNDATION, INC., priority 2009, published 2018).

How the values were obtained:
[1] = system: Caco-2 monolayers; experiment: Caco-2 cell permeability and transport; assay type: in vitro ADME; set-up: Caco-2 Permeability Papp B-A / Caco-2 Permeability Papp A-B: unit not given here; conditions: for Caco-2 Permeability Papp A-B: apical-to-basolateral
Method: (§1) Cell permeability and transport mechanisms in Caco-2 and MDR1-MDCK monolayers experiments were performed in triplicate in the apical-to-basolateral and basolateral-to-apical direction using […]® wells containing either Caco-2 or MDR1-MDCK monolayers. A modified Hanks buffer pH 7.4 was used in both reservoir and receiver wells with the addition of 1% BSA in the receiver side. Confluent monolayers were used and their integrity was verified using reference compounds (Atenolol as a low permeability reference compound and Propanolol as a high permeability reference compound). A sample in the basolateral and apical sides was taken after 2 hours and the concentration measured by LC/MS-MS.

[2] = system: MDR1-MDCK monolayers; experiment: MDR1-MDCK cell permeability and transport; assay type: in vitro ADME; conditions: for Efflux: class in words
Method: as §1

[3] = Microsomal stability in human liver microsomes; assay type: in vitro ADME; conditions: both, human, microsomes, pH 7.4
Method: Stability in human liver microsomes was tested over […] at 37° C. using pooled mixed gender human liver microsomes. Liver microsomes were prepared at 1.0 mg/ml of microsomal protein in a 100 mM potassium phosphate pH 7.4 buffer with 1 mM NADPH. The media was incubated at 37° C. with the compound in solution in DMSO. The concentration of the compound was followed by LC/MS-MS as a function of time. Samples were assayed at t=0, 30, 60 and 120 minutes. Testosterone was used as a positive control. The same experiment was performed with mouse liver microsomes instead of human liver microsomes.

[4] = in vitro; assay type: in vitro ADME; conditions: human, plasma, Human Plasma Protein Binding % Bound
Text: Plasma protein binding was ascertained using dialysis equilibrium methods known in the art.

[5] = system: Du 145; experiment: Inhibition of tumor cells proliferation (CellTiter Glo); assay type: cell-based; conditions: Homo sapiens, 72 hours
Method: Inhibition of the proliferation of tumor cells was investigated in vitro in several tumor cell lines. Cells of the desired tumor cell line were plated at 2×10^5 cells/ml in 96 well plates. Twice the indicated concentrations of the compounds of the invention were added to cells the following day in an equal volume of media. 72 hours later, cells were lysed and subjected to ATP determination using the CellTiter Glo-Luminescent Cell Viability Assay kit (Promega, Madison, Wis.). Experiments were done in triplicate. Results for the inhibition of cells proliferation are reported as IC50 (the concentration leading to a 50% inhibition of proliferation of the cell population) and are listed in Table 6. FIGS. 3 and 4 show bar graphs comparing the IC50s of specific embodiments of compounds of the invention across multiple tumor cell lines.

[6] = target: T1, MIF (Homo sapiens, UniProt P14174); experiment: MIF cell lysate enzymatic inhibition; assay type: biochemical; conditions: cell lysates
T1 construct: the enzymatic activity of MIF present in cell lysates; endogenous in cells
T1 sequence (P14174 2-115 limits assumed): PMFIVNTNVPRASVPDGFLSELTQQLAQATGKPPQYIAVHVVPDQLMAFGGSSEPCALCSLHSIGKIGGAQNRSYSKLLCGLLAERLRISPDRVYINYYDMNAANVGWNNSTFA
Method: Normal or transformed cell lysates can be used to determine the concentration inhibiting the enzymatic activity of MIF present in cell lysates. Cells are cultured in the appropriate media to the required number of cells, collected, and lysed. Compounds to be characterized are solubilized in DMSO and serial dilutions are performed in order to obtain a range of concentrations including complete and no quantifiable inhibition.

[7] = system: Chick Chorioallantoic Membrane (CAM); experiment: Chick chorioallantoic membrane (CAM) assay, o ring; assay type: in vivo; conditions: for Blood Vessel Density: o ring; for Anti-angiogenic properties: CAM assay, in words
Method: 8 groups with 10 embryos in each group were used in the experiment described below. Fresh fertile eggs were incubated for 3 days in a standard egg incubator at 37° C. for 3 days. On Day 3, eggs were cracked under sterile conditions and embryos were placed into 20×100 mm plastic plates and cultivated at 37° C. in an embryo incubator with a water reservoir on the bottom shelf. Air was continuously bubbled into the water reservoir using a small pump so that the humidity in the incubator is kept constant. On Day 6, a sterile silicon “o” ring was placed on each CAM and test compound dissolved in 0.5% methylcellulose was placed into each “o” ring in a sterile hood. Paclitaxel was used as a positive control. Embryos were returned to the incubator after addition of test material. Control embryos received 10 μL of vehicle alone. On Day 8, embryos were removed from the incubator and kept at room temperature while blood vessel density were determined under each “o” ring using an image capturing system at a magnification of 160×. The blood vessel density was measured using an angiogenesis scoring system in that arithmetic numbers 0 to 5 (or exponential numbers 1 to 32) are used to indicate number of blood vessels present at the treatment sites on the CAM. Number 5 represents the highest density and 0 represents no angiogenesis. The percent of inhibition at each dosing site was calculated using the score recorded for that site divided by the mean score obtained from the appropriate control samples for each individual experiment. The percent of inhibition for each dose of a given compound was calculated by pooling all results obtained for that dose from 8-10 embryos.

[8] = Pharmacokinetics parameters in rats; assay type: in vivo; conditions: rat, plasma; for Vd: intravenous, read-out: Volume of distribution; for clearance: iv, after i.v. administration; for half-life: read-out: Terminal plasma half-life (converted)
Method: The pharmacokinetic parameters of several compounds were investigated in rodents. Both oral and iv administration were investigated in rats. Blood samples were collected over time; plasma was analyzed using an LC/MS-MS method. Pharmacokinetic parameters were calculated using Win-NonLin. Terminal plasma half-lives were 7.10 hr for ACT-MIF-001, 1.66 hr for ACT-MIF-002, and 1.50 hr for ACT-MIF-003. […] The volume of distribution values were 72666 mL/kg for ACT-MIF-001, 2118 mL/kg for ACT-MIF-002, and 1926 mL/kg for ACT-MIF-003.

[9] = system: pancreatic tumor model; experiment: Efficacy study in a pancreatic tumor model; assay type: in vivo; conditions: daily 40 mg/kg IP; for Survival: FIG. 10
Method: The activity of the compounds of the invention was investigated in a pancreatic tumor model using an experiment similar to the one described in EXAMPLE 69. Compounds ACT-MIF-002 and ACT-MIF-003 were dosed daily at 40 mg/kg via IP administration.
Lumbar regions of the control and treated groups were excised and sent for histopathological evaluation. […] In the example shown in FIG. 11, bone marrow of the vehicle treated mice is consistent with bone metastases (1) with evidence of surrounding skeletal muscle metastases from invading marrow tumor cells (2 and 3).

Structure (SMILES)	Caco-2 Permeability Class [1]	Caco-2 Permeability Papp A-B ([1]; pH 7.4, 2 hours)	Brain penetration classification [2]	P-gp Substrate [2]	Efflux [2]	Metabolic Stability in Human Microsomes % Remaining ([3]; 0 h) [%]	Metabolic Stability in Human Microsomes % Remaining ([3]; 1 h) [%]	fraction unbound [4]	IC50 [5] [µM]	IC50 [6] [µM]	Blood Vessel Density ([7]; 0.3 nM per CAM)	Blood Vessel Density ([7]; 3 nM per CAM)	Blood Vessel Density ([7]; 30 nM per CAM)	Anti-angiogenic properties [7]	Vd [8] [L/kg]	clearance [8] [mL/min/kg]	half-life [8] [h]	Body weight and clinical signs of toxicity [9]	Metastatic tumor burden [9]	Survival [9]	also measured
COc1ccc(-c2cc(I)ncn2)c(F)c1 [ACT-MIF-002, 4-Iodo-6-(2-fluoro-4-methoxyphenyl)pyrimidine]	Low	0.2	Low	No	High	100	<2	0.021	24.9	0.07	9.4 ± 2.4	8.6 ± 2.6	4.4 ± 1.3	high anti-angiogenic properties	2.12	132	1.66	no body weight loss and no clinical signs of toxicity	limited the metastatic tumor burden	significant impact on survival	Caco-2 Efflux [1]: 1.7; Bone metastases, histopathology of lumbar region ([9]; FIG. 11): no evidence of bone metastases
Fc1ccccc1-c1cc(I)ncn1 [ACT-MIF-003, 4-Iodo-6-(2-fluorophenyl)pyrimidine]	High	2.1	High	No	High	100	57	0.038	16.5	0.2	11.6 ± 1.2	4.2 ± 1.2	4.1 ± 0.7	high anti-angiogenic properties	1.93	197	1.5	no body weight loss and no clinical signs of toxicity	limited the metastatic tumor burden	significant impact on survival	Caco-2 Permeability Papp B-A ([1]; basolateral-to-apical, pH 7.4, 2 hours): 2.6
